Results on 80 compounds are retold here after the METLIN SMRT retention time set (Domingo-Almenara et al. 2019).

A short description of the data set: gradient 5% acetonitrile 3 min, to 50% in 2 min, to 85% in 15 min, held 3 min, 100 µL/min. To be noted: column: Zorbax Extend-C18 2.1 x 50 mm; eluents: water / acetonitrile, 0.1% formic acid. In outline: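 Retention times of pure standards were taken from adduct peaks that were selected by computer and manually inspected. Over 3 months, mixtures of ~100 molecules were run by HPLC–quadrupole time-of-flight mass spectrometry in positive and negative ionization mode. The Zorbax Extend-C18 column (2.1 × 50 mm, 1.8 μm) ran at 100 μL/min in water and acetonitrile, each containing 0.1% formic acid, with 40 μL dead volume and 900 μL dwell volume.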
`Cc1ccc(Oc2nccn3c(=O)n(CC(=O)Nc4ccc(C(C)C)cc4)nc23)cc1` yielded an RP-LC retention time of 1030 s. The value for `Cc1cccc(Nc2nc3ccncc3n(Cc3ccccc3)c2=O)c1` was 673 s; that for `CCN(CC)CCNC(=O)c1nnc(-c2ccc(S(=O)(=O)N3CCCC3)cc2)o1` was 670 s. The value for `COc1ccccc1-c1noc(-c2nnn(Cc3nc(-c4ccccc4OC)oc3C)c2C)n1` was 1060 s. The figure for `COc1cc(NC(=O)Nc2c(-c3cccnc3)[nH]c3ccccc23)cc(OC)c1` is 679 s; for `O=C(Cn1cnc2nc(N3CCCC3)ncc2c1=O)Nc1ccc(Cl)cc1C(F)(F)F` it is 782 s; for `Cc1cccn2cc(C(=O)NCCC(C)C)nc12` it is 712 s.

The compound `CCOC(=O)C1CCN(c2cc3c(cc2NC(=O)CC)n(C)c(=O)c(=O)n3C)CC1` showed an RP-LC retention time of 724 s.

Compound `O=C(NC1CCN(c2cc(-c3ccccc3)[nH]n2)CC1)c1ccc(Cl)s1` displayed an RP-LC retention time of 838 s. The figure for `Cc1ccc(-c2nc(C3CCN(C(=O)C4CC(=O)N(c5ccc(C)c(C)c5)C4)CC3)no2)cc1` (stereo not given) is 1070 s; for `CN(C)C[C@@H]1CN(Cc2ccncc2)C[C@H]1NS(=O)(=O)c1ccc(C#N)cc1` it is 639 s; for `Cn1c(=O)n(C2CCN(C(=O)Cc3ccccc3)CC2)c2ncncc21` it is 655 s. The value for `Cc1ncsc1C1N(C2CCN(S(=O)(=O)c3ccccc3)CC2)C(=O)C12CCCC2` (stereo not given) was 850 s; that for `Cc1cnc(CC2CCN(S(=O)(=O)c3ccccc3)C2)n1C(C)C` (stereo not given) was 650 s; that for `CC(C)CN(C1CCN(C)CC1)C1CN(C(=O)c2cccs2)C1` was 586 s. The value for `CC(C)n1c(=O)c(NCc2ccc(N3CCOCC3)cc2)nc2ccncc21` was 606 s. Take `O=c1n(Cc2ccccc2Cl)nc2c(S(=O)(=O)N3CCOCC3)cccn12`: the RP-LC retention time is 774 s. The value for `CCn1ncc(NC(=O)c2cccc(OC)c2)c(N2CCOCC2)c1=O` was 788 s; that for `c1ccc(SCc2nnc3sc(-c4cnccn4)nn23)cc1` was 774 s.

In the case of `CCOc1cc(=O)n2c(c1C(=O)NCc1ccc3c(c1)OCO3)CCCC2`, the RP-LC retention time was determined as 707 s. The value for `Cc1cc(=O)n(CC(=O)NCc2ccccc2Cl)c(N)n1` was 603 s; that for `O=C(Cc1ccc(F)cc1)NCCNc1cc(-n2cccn2)ncn1` was 652 s; that for `CC(C)NC(=O)c1ncn2c1C(=O)N(C1CC1)C(C)(C(=O)NCc1ccc(F)cc1)C2` (stereo not given) was 673 s. In turn, `CCCN(CC1CCOC1)C(=O)Nc1ccccc1` (stereo not given) showed an RP-LC retention time of 575 s. The figure for `CC(C)CN(Cc1cccnc1)C1CN(S(=O)(=O)c2cn(C)cn2)C1` is 591 s; for `CCc1ccccc1S(=O)(=O)N1CCc2nc(-c3ccc(OC)cc3)ncc2C1` it is 1150 s.

Compound `CCN1CCn2cc(S(=O)(=O)Nc3ccc(OC)cc3C)cc2C1=O` came in with an RP-LC retention time of 716 s. `COc1cccc(C(O)CN2CCN(c3cccc(OC)c3)CC2)c1` (stereo not given) displayed an RP-LC retention time of 659 s.

Regarding `CCc1noc(C2(NC(=O)c3ccc(F)c(Cl)c3)CCCCC2)n1`, the RP-LC retention time came out at 1030 s. In the case of `CC1(c2cccc3ccccc23)OC(=O)c2ccccc21` (stereo not given), the RP-LC retention time worked out at 1030 s. As for `COc1ccc(Nc2nc(C(=O)N3c4ccccc4CC3C)cs2)cc1OC` (stereo not given), the RP-LC retention time worked out at 854 s. The figure for `O=C(CC1CCCC1)N1CC(c2nc(-c3ccccc3)no2)C2(CCOCC2)C1` (stereo not given) is 923 s; for `Cc1ccc(NC(=O)Cn2c(N3CCOCC3)nc(C)cc2=O)cc1` it is 680 s. The value for `COc1cccc(Cn2cccc2-c2nc(-c3ccncc3)no2)c1` was 1060 s. The figure for `CCOc1ncccc1CNC(=O)NCc1cccc(OC)c1` is 570 s; for `O=C(Cn1c(=O)cc(C(=O)N2CCCC2)c2ccccc21)Nc1ccccc1Cl` it is 714 s. Turning to `Cc1cc(N(C)C)n2nc(CN3CCCC(C)C3)nc2n1` (stereo not given), the RP-LC retention time turned out to be 536 s. The value for `Cc1ccc(NC(=O)C2CCc3sc(C(=O)N4CCOCC4)cc3C2)cc1C` (stereo not given) was 570 s.

Compound `COc1ccc(C)cc1NC(=O)Cn1nc2c(Oc3ccc(Cl)cc3)nccn2c1=O` returned an RP-LC retention time of 946 s. The value for `CCn1c(C(=O)N(C)C2CCCCC2)cc2c(=O)oc3ccccc3c21` was 1010 s; that for `COc1ccc(-c2nnc(-c3ccccc3)o2)cc1S(=O)(=O)NC(C)(C)C` was 955 s; that for `COCCc1noc(C2CN(C(=O)Cn3ccnc3)C2)n1` was 580 s.

In turn, `Cc1ccccc1Nc1c(-c2c(F)cccc2Cl)nc2ccc(Cl)cn12` came in with an RP-LC retention time of 984 s. The value for `Cc1sc(NC(=O)c2cccs2)nc1-c1ccc2c(c1)N(C)C(=O)CO2` was 942 s; that for `CCc1ccc(NC(=O)Cn2cnc3nc(N4CCCC(C(=O)NC5CC5)C4)sc3c2=O)cc1` (stereo not given) was 743 s; that for `Cc1ccsc1C1C2=C(CC(C)(C)CC2=O)OC2=C1C(=O)CC(C)(C)C2` was 1090 s.

The compound `O=C(c1n[nH]c2ccccc12)N1CCCC1c1nc(-c2cccc(C(F)(F)F)c2)no1` (stereo not given) showed an RP-LC retention time of 1330 s. The value for `COC(=O)c1sccc1NC(=O)NCC(c1ccc(OC)c(OC)c1)c1c[nH]c2ccccc12` (stereo not given) was 978 s; that for `CCOC(=O)c1cccc(Nc2c(-c3ccc(C)cc3)nc3cnccn23)c1` was 941 s; that for `O=C(c1ccc(C(F)(F)F)cc1)N1CCN(c2nc(CN3CCOCC3)cs2)CC1` was 655 s. The value for `Cc1[nH]c2ccccc2c1C(=O)C(=O)NCCn1ccc2ccccc21` was 844 s; that for `Cc1ccc(C)c(NC(=O)Nc2ccc3nncn3c2)c1` was 747 s; that for `O=C(Nc1ccccc1)c1cccc(N2CC(C(=O)Nc3cccc(Cl)c3)CC2=O)c1` (stereo not given) was 912 s. The value for `CCc1cccc(C)c1NC(=O)C1CCCN(S(=O)(=O)c2cc(-c3noc(C)n3)cs2)C1` (stereo not given) was 995 s; that for `Cc1cc(NC(=O)CSc2nnc(NC(=O)c3snnc3C)s2)no1` was 666 s; that for `CCCn1ccc2oc(C)c(C(=O)NCc3cc(F)ccc3F)c2c1=O` was 1040 s.

`O=C(CSc1nc(N2CCc3ccccc3C2)nc2ccccc12)NC1CCCCC1` came in with an RP-LC retention time of 728 s. The value for `Cc1ccc(CNC(=O)c2cc3c(=O)n(C)ccc3n2C)o1` was 668 s; that for `O=C(Nc1cnn(-c2ncc(N3CCSCC3)cn2)c1)C1CCCO1` (stereo not given) was 665 s; that for `CCC(=O)Nc1ccc(CCc2nc3ccc(C(=O)NCCOC)cc3[nH]2)cc1` was 567 s. Turning to `COc1cccc(-c2cn3ccn(-c4ccccc4)c(=O)c3n2)c1`, the RP-LC retention time was determined as 773 s.

In turn, `O=C(C1COc2ccccc2O1)N1CCCC(c2nnc(-c3ccccc3F)s2)C1` (stereo not given) displayed an RP-LC retention time of 922 s.

On to `Cc1ccccc1NC(=O)Cc1csc2nc(-c3cccc(Br)c3)cn12`, for which the RP-LC retention time was found to be 948 s. The figure for `COCC1CCN(C(=O)NCc2cccc3ccccc23)CC1` is 769 s.

Take `Cc1ccc(-c2nnc(SCc3noc(CCC(=O)Nc4ccc(F)c(Cl)c4)n3)o2)cc1`: the RP-LC retention time amounted to 1020 s.

Regarding `CN1C[C@H](C(=O)N[C@]2(C)O[C@@]3(O)[C@@H]4CCCN4C(=O)[C@H](Cc4ccccc4)N3C2=O)CC2c3cccc4[nH]cc(c34)C[C@H]21` (stereo not given in full), the RP-LC retention time was found to be 683 s. The value for `Cc1ccccc1CC(=O)N1CCC2(CC1)NC(=O)c1ccc(F)cc1N2C` was 798 s; that for `CCOc1ccc(-c2nc(-c3ccc4oc(C)nc4c3)no2)cc1OCC` was 1170 s. The value for `COc1cc(-c2nc(C3CC(=O)N(c4ccc(Cl)cc4)C3)no2)cc(OC)c1OC` (stereo not given) was 993 s; that for `O=C(NC1CC1)c1cnn2c(-c3ccccn3)ccnc12` was 687 s; that for `Cc1c(C(=O)N2CCCC2)cnn1-c1ncccc1-c1nc(C2CC2)no1` was 706 s. The figure for `CCN1CCN(CCNC(=O)c2ccc3c(c2)NC(=O)C2CCCCN32)CC1` (stereo not given) is 574 s; for `Cc1cc(C)c(S(=O)(=O)NC(C)Cn2cncn2)c(C)c1` (stereo not given) it is 664 s; for `CCC(=O)Nc1cc2c(cc1N1CCC(C)CC1)n(C)c(=O)c(=O)n2C` it is 773 s. For `COc1ccc2[nH]cc(CCNC(=O)CCCn3c4ccccc4c4cnn(C)c(=O)c43)c2c1`, the RP-LC retention time stood at 795 s. The figure for `O=C(NC1CCN(c2cc(-c3cccs3)[nH]n2)C1)c1ccc(Br)cc1` (stereo not given) is 782 s; for `O=C(COc1ccc(-c2cnc3ccccc3n2)cc1)NCC1CCCO1` (stereo not given) it is 726 s; for `Cc1ccc(NC(=O)NCC2CCOCC2)cc1` it is 704 s. The figure for `CCCCC(=O)N1CC(c2nc(-c3cccnc3)no2)C2(CCOCC2)C1` (stereo not given) is 651 s; for `CCOC(=O)c1nc(NCC2CCN(Cc3cccc(F)c3)CC2)c2ccccc2n1` it is 605 s.
